{"source": "patent US10898476B2", "about": "“Heat shock proteins and cholesterol homeostasis” (Orphazyme A/S, priority 2016, dated 2021)", "key": {"[1]": {"system": "LXR targets (ABCA1, GRAMD1A, FABP4)", "test": "Western blotting of LXR targets in macrophage foam cells", "assay_type": "cell-based, human", "conditions": "during cholesterol efflux; FIG. 6", "source_text": "FIG. 6 The effect of rHSP70 on protein levels of selected LXR targets in primary human macrophage foam cells. Cells (as described for FIG. 5) were harvested and equal amounts of protein separated by SDS-PAGE and analyzed by Western blotting. Data are mean±SEM, n=7 blood donors. *: p<0.05; **: p<0.01. (a) ABCA1, (b) GRAMD1A, (c) FABP4.\n(§1) Effect of rHsp70 on the transcript and protein levels of LXR targets in primary human macrophage foam cellsMacrophage foam cells from 4 individual blood donors were incubated −/+rHSP70 during cholesterol efflux and RNAs were extracted. RNA sequencing was performed by Illumina NextSeq sequencer. RNASeq results were analysed using “Gene Set Enrichment Analysis”."}, "ABCA1 [2]": {"system": "ABCA1", "test": "ABCA1 protein levels by Western blotting in macrophage foam cells", "assay_type": "cell-based, human", "conditions": "during cholesterol loading and efflux; FIG. 2b", "method": "(§2) FIG. 2 Effect of rHsp70 on ABCA1 transcript and protein levels in primary human macrophage foam cells. Macrophages were loaded with acLDL followed by cholesterol efflux to complete medium in the absence or presence of rHSP70. (a) The ABCA1 mRNA levels were measured by qRT-PCR. Data are mean±SEM, n=6 blood donors with triplicate measurements. (b) Cells were harvested and equal amounts of protein separated by SDS-PAGE and analyzed by Western blotting using a polyclonal anti-ABCA1 antibody. ProAct staining was used as a loading control. Data are mean±SEM, n=7 blood donors.\n(§3) Cells were collected in PBS and centrifuged at 2000 rpm for 10 min at 4° C. Cell pellets were lysed in either RNA lysis buffer or in RIPA buffer containing protease inhibitors for transcript or protein analysis.\nProtein lysates were cleared by centrifugation at 12000 rpm for 10 min at 4° C. Protein concentration was determined using the Bio-Rad protein assay kit. Equal amount of total protein was loaded on 8% SDS-polyacrylamide gel and Western blotting was performed using polyclonal anti-ABCA1 antibody (1:500, Novus Biologicals). The primary antibody was detected with anti-rabbit secondary antibody (1:2000, Sigma). The blots were developed using the Enhanced Chemiluminiscense kit (Amersham). Protein bands were normalized to Proact membrane stain (Amresco). Quantitation of protein bands was performed using ImageJ program."}, "[3]": {"system": "LXR targets such as ABCA1, FABP4 and GRAMD1A", "test": "RNA sequencing of LXR targets in macrophage foam cells", "assay_type": "cell-based, human", "conditions": "during cholesterol efflux; 4 blood donors; FIG. 5", "method": "FIG. 5 The effect of rHSP70 on transcript levels of selected LXR targets in primary human macrophage foam cells. Macrophage foam cells from 4 individual blood donors were incubated −/+rHSP70 during cholesterol efflux and RNAs were extracted. RNA sequencing was performed by Illumina NextSeq sequencer. RNASeq results were analysed using “Gene Set Enrichment Analysis”. Selected LXR pathway targets modulated by rHSP70 administration were plotted against their transcript count numbers. Front row: FABP4; middle row: GRAMD1A; back row: ABCA1.\nas §1"}, "[4]": {"system": "primary murine bone marrow macrophage foam cells", "test": "BODIPY-cholesterol efflux to 6% HDL enriched serum, confocal imaging", "assay_type": "cell-based", "conditions": "24 h efflux to 6% HDL enriched serum; FIG. 4", "method": "FIG. 4 rHSP70 speeds up BODIPY-cholesterol efflux from primary murine macrophage foam cells. Primary murine bone marrow macrophage foam cells were incubated with BODIPYcholesteryl linoleate-LDL particles. Cholesterol efflux was performed for 24 h to 6% HDL enriched serum in the presence or absence of rHSP70. Images were taken using Leica SP8 scanning confocal microscope at the indicated time points. (a) Total cell BODIPY-cholesterol intensity changes were calculated using ImageJ and data normalized to 0 h. (b) Representative images of BODIPY-cholesterol intensity changes over time. n=60-100 cells/condition. *: p<0.05.\nrHSP70 speeds up BODIPY-cholesterol efflux from primarymurine macrophage foam cells. Primary murine bone marrow macrophage foam cells were incubated with BODIPYcholesteryl linoleate-LDL particles. Cholesterol efflux was performed for 24 h to 6% HDL enriched serum in the presence or absence of rHSP70."}, "ABCA1 [5]": {"system": "ABCA1", "test": "ABCA1 mRNA levels by qRT-PCR in macrophage foam cells", "assay_type": "cell-based, human", "conditions": "during cholesterol loading and efflux; normalized to 18S mRNA; FIG. 2a", "method": "as §2, §3\nTotal RNA was isolated using NucleoSpin RNA isolation kit (Macherey-Nagel). 1.5 μg of total RNA was transcribed using SuperScript VILO cDNA synthesis kit (Invitrogen). abca1 primers Fwd 5′-[…], Rev 5′-[…] (Sigma) and 18S primers Fwd 5′-[…], Rev 5′-CCCCGCGAGCACAGA (Sigma) were used for qRT-PCR with Light Cycler 480 SYBER Green I Master Mix (Roche). Reaction mixtures were prepared according to the manufacturer's instructions. Reaction steps: 95° C. 15 min and 40 cycles of 95° C. 15 sec, 60° C. 30 sec and 72° C. 10 sec. […] Relative quantities of mRNAs were normalized to 18S mRNA."}, "[6]": {"system": "acid sphingomyelinase (ASMase)", "conditions": "via binding to bismonoacylglycerophosphate (BMP); Mahalka et al, 2014; cited from earlier work"}, "[7]": {"system": "primary human macrophage foam cells", "test": "Cholesterol efflux from acLDL-loaded macrophage foam cells to complete medium, lipids by TLC", "assay_type": "cell-based", "method": "FIG. 1 rHSP70 stimulates the removal of cholesterol from primary human macrophage foam cells. Differentiated human macrophages were loaded with acLDL (50 μg/mL) for 3 days. Cholesterol efflux was performed for 12 h to complete medium in the presence or absence of rHSP70 (20 ug/ml). Lipids were analyzed by TLC. Pooled data from 8 blood donors from 8 independent experiments and three technical replicates, mean±SEM.\nFIG. 3 The effect of rHsp70 dose and BMP binding on cholesterol efflux from primary human macrophage foam cells. Macrophages were loaded with acLDL followed by cholesterol efflux to complete medium in the absence or presence of rHSP70 as in FIG. 1. Either wild-type or W90F mutant (mut) rHsp70 was employed at the final concentrations of 20 or 200 μg/mL Pooled data from 2 individual donors with 3 technical replicates, mean±SEM.\nHuman primary white blood cells, isolated from healthy blood donors were acquired form the Finnish Red Cross (permit number 21/2015). Peripheral blood mononuclear cells (PBMCs) were isolated by Ficoll layering (Boyum, A., 1964) with Ficoll-Paque Premium (GE Healthcare). […]\nCells were harvested in 2% NaCl solution and lipids were extracted as described in Bligh and Dyer (1959). […] The TLC plate was charred and free cholesterol and cholesterol ester bands were quantitated using ImageJ. […]"}}, "data": [{"substance": "rHSP70: His-tagged recombinant wildtype Hsp70 supplied by Orphazyme ApS, Denmark", "values": [{"measurement": "protein levels of LXR targets", "setting": "[1]", "result": "These changes can also be seen at the protein level"}, {"measurement": "ABCA1 protein level", "setting": "ABCA1 [2]", "result": "significant increase"}, {"measurement": "transcript levels of LXR targets", "setting": "[3]", "result": "major transcriptional re-programming"}, {"measurement": "BODIPY-cholesterol efflux", "setting": "[4]", "result": "speeds up"}, {"measurement": "ABCA1 transcript level", "setting": "ABCA1 [5]", "result": "significant increase"}, {"measurement": "activity of acid sphingomyelinase (ASMase)", "setting": "[6]", "result": "stabilize and enhance"}, {"measurement": "cholesterol removal (efflux) from foam cells", "setting": "[7]; 20 ug/ml, 16 h pretreatment during loading, then 12 h efflux to complete medium (RPMI, 10% FBS), FIG. 1, FIG. 3", "result": "significantly enhanced"}, {"measurement": "whether a higher dosage improves the cholesterol efflux promoting effect", "setting": "[7]; 200 ug/ml compared with 20 ug/ml, before and during 12 h efflux, FIG. 3", "result": "found not to be the case"}]}]}
